Patent US8466172B2, “Stabilization of hypoxia inducible factor (HIF) alpha” (FibroGen, Inc., priority 2001, dated 2013)

Tests used:
[1] = test system: vascular endothelial growth factor (VEGF); assay: VEGF expression in conditioned media, QUANTIKINE immunoassay; assay type: cell-based, human; conditions: HFF, 293A and Hep3B cells
Experimental: When cell layers reached confluence, the media was replaced with OPTI-MEM media (Invitrogen Life Technologies, Carlsbad Calif.) and cell layers were incubated for approximately 24 hours in 20% O2, 5% CO2 at 37° C. Compound of the invention (one of compounds A to O) or DMSO (0.5 to 1%) was then added to existing medium, and incubation was continued overnight.
Conditioned media collected from cell cultures grown as in Example 1 was analyzed for vascular endothelial growth factor (VEGF) expression using a QUANTIKINE immunoassay (R&D Systems) according to the manufacturer's instructions. […] Values on the y-axis represent fold-induction relative to control and are reported on a log2 scale, such that a value of 1 represents 2-fold induction.

[2] = test system: Wistar rats, toxic-ischemic liver injury; assay: Toxic-ischemic liver injury (CCl4); assay type: in vivo, rat; conditions: 9 weeks
Experimental: The model of toxic-ischemic liver injury was described in Bickel et al. (supra). Briefly, male Wistar rats (212-320 g) either received 1 ml/kg carbon tetrachloride (CCl4) in olive oil (1:1) by gavage twice weekly for nine weeks (n=140) or received no treatment (controls; n=10). Additionally, a group of animals receiving CCl4 (n=60) also received compound P. The compound was administered by intraperitoneal injection twice daily at 60 mg compound/2 ml saline/kg body weight. After 9 weeks, the animals were sacrificed and the liver was weighed. Bilirubin, alanine transaminase, alkaline phosphatase, albumin, and total bile acids in serum were determined using commercially available kits.

[3] = test system: Wistar rats, toxic-ischemic liver injury; conditions: CCl4 + CPD, 9 weeks, 60 mg/kg intraperitoneal twice daily; cited from earlier work
[4] = test system: vascular endothelial growth factor (VEGF) gene expression; assay: VEGF gene expression in liver and kidney, quantitative PCR; assay type: in vivo; conditions: mouse, 200 mg/kg/day oral gavage, 2.5 days, four hours after final dose
Experimental: Four hours after the final dose, animals were anesthetized with isoflurane and a blood sample was collected from the abdominal vein. […] The mice were then sacrificed and approximately 150 mg of liver and each kidney were isolated and stored in [sequence] solution (Ambion) at −20° C.
RNA isolation was carried out using the following protocol. Tissue slices were cut into small pieces, 1.75 ml of RLT lysis buffer (RNEASY kit; Qiagen) was added, and the pieces were homogenized for about 20 seconds using a rotor-stator POLYTRON homogenizer (Kinematica, Inc., Cincinnati Ohio). […] The RNA was eluted into 80 μL of water and quantitated with RIBOGREEN reagent (Molecular Probes, Eugene Oreg.). […] The absorbance at 260 and 280 nm was measured to determine RNA purity and concentration.
cDNA synthesis was performed using 1W random hexamer primers, 1 μg of total RNA, and OMNISCRIPT reverse transcriptase (Qiagen), according to the manufacturer's instructions. […] Analysis of the relative level of vascular endothelial growth factor (VEGF) gene expression was performed by quantitative PCR using a [sequence] […]
The relative level of 18S ribosomal RNA gene expression was measured as a control. Quantitative PCR was performed using a [sequence] […]

aldolase = conditions: 293A cells
Experimental: Alternatively, human cells derived from adenovirus-transformed fetal kidney epithelium (293A) were cultured in DMEM, 5% FBS, 1% Penicillin-Streptomycin at 37° C. and 10% CO2. […] Culture supernatant was then removed, the plates were placed on ice, lysis buffer (LB)-1 was added and the cells were harvested by scraping. The scraped cells were collected and incubated for 15 minutes on ice followed by centrifugation at 3000 g for 5 minutes at 4° C. The supernatant, which represents the cytosolic fraction, was collected and cytosolic proteins were separated under denaturing and reducing conditions using SDS polyacrylamide gels that were loaded with equal amounts of protein per lane.
Gel electrophoresis was conducted at 150 V for 2 hours, and after SDS-PAGE the proteins were transferred to a PVDF membrane for 1.5 hours at 400 mA at 4° C. The membrane was then incubated in blocking buffer, washed once with T-TBS, and then anti-aldolase antibody diluted to working concentration in blocking buffer was added and the blots were incubated over night with gentle agitation at 4° C. The membrane was then washed 4 times with T-TBS, followed by incubation for one hour at room temperature with blocking buffer containing labeled secondary antibody. The membrane was then washed four times with T-TBS. […]

[5] = test system: Wistar rats, myocardial infarction; conditions: one week after surgery
Experimental: Male Wistar rats (100-110 g), aged 4-5 weeks, were kept on a regular diet and a 12 hour day-night cycle. […] Animals were treated for two days prior to surgery and for one week following surgery. […] Ligation of the left anterior descending coronary artery was performed in artificially ventilated animals after left thoracotomy. Animals were sacrificed one week after surgery and echocardiography was performed. Fractional shortening, end-diastolic diameters, and end-systolic diameters were determined in a blinded fashion.

O=C(O)CNC(=O)c1nc(Cl)c2cc(OCc3ccccc3)ccc2c1O [Compound L, N-((7-benzyloxy-1-chloro-4-hydroxy-isoquinoline-3-carbonyl)-amino)-acetic acid]
VEGF expression in conditioned media (FIG. 4A) [1]: increase in VEGF expression

COc1cccnc1C(=O)NCC(=O)O [Compound P, [(3-methoxy-pyridine-2-carbonyl)-amino]-acetic acid]
decrease in serum level of ALT in the treated group relative to the untreated group [2]: 43% | decrease in serum level of AP in the treated group relative to the untreated group [2]: 65% | decrease in serum level of BR in the treated group relative to the untreated group [2]: 64% | decrease in serum level of tBA in the treated group relative to the untreated group [2]: 65% | ALT (serum alanine transaminase) [3]: 59.0 ± 29.5 U/L | AP (serum alkaline phosphatase) [3]: 195 ± 72.7 U/L | BR (serum bilirubin) [3]: 2.83 ± 2.21 µmol/L | BW (body weight) [3]: 373 ± 38.9 g | tBA (serum total bile acids) [3]: 40.8 ± 51.4 µmol/L

COc1cc2cccnc2c2[nH]cc(C(=O)O)c(=O)c12 [Compound Q, 5-methoxy-4-oxo-1,4-dihydro-[1,10]phenanthroline-3-carboxylic acid]
VEGF expression in conditioned media (FIG. 4A) [1]: increase in VEGF expression

CC(C)Oc1ccc2nc(C(=O)NCC(=O)O)c(O)cc2c1 [Compound H, N-((3-hydroxy-6-isopropoxy-quinoline-2-carbonyl)-amino)-acetic acid]
VEGF expression in conditioned media (FIG. 4A) [1]: increase in VEGF expression

O=[N+]([O-])c1ccnc2c(O)cccc12 [Compound E, 4-nitro-quinolin-8-ol]
VEGF expression in kidney (FIG. 6A) [4]: increased VEGF expression

COc1ccc(CCN(CCC(=O)NO)S(=O)(=O)c2ccc(NC(=O)N(Cc3ccccc3)Cc3ccccc3)cc2)cc1 [Compound C, 3-{[4-(3,3-dibenzyl-ureido)-benzenesulfonyl]-[2-(4-methoxy-phenyl)-ethyl]-amino}-N-hydroxy-propionamide]
VEGF expression in conditioned media (FIG. 4A) [1]: increase in VEGF expression

O=C(O)CNC(=O)c1nc(Cl)c2ccccc2c1O [Compound B, N-((1-chloro-4-hydroxy-isoquinoline-3-carbonyl)-amino)-acetic acid]
VEGF expression in kidney (FIG. 6A) [4]: increased VEGF expression | expression of aldolase over time (FIG. 4B) (aldolase): increased expression of aldolase | increase in end-diastolic diameter over sham operated animals [5]: 18% | increase in left ventricular end-systolic diameter over sham operated animals [5]: no increase | fractional shortening (FIG. 12A) ([5]; 50 mg/kg oral gavage two times per day from two days prior to surgery): 41% | VEGF expression in conditioned media (FIG. 4A) [1]: increase in VEGF expression

COC(=O)CNC(=O)c1nc(Cl)c2cc(OCc3ccccc3)ccc2c1O [Compound K, ((7-benzyloxy-1-chloro-4-hydroxy-isoquinoline-3-carbonyl)-amino)-acetic acid methyl ester]
VEGF expression in conditioned media (FIG. 4A) [1]: increase in VEGF expression
